pIC50: −log10 of the molar value.

The target in test [1] is Epidermal growth factor receptor (Homo sapiens, UniProt P00533). As to the kind of experiment: Inhibition of EGFR after 50 mins by HTRF assay. Background: TR-FRET usually uses a lanthanide donor and a delayed reading to cut background.
Another test concerns NIH3T3. As to the kind of experiment: Antiproliferative activity against mouse NIH/3T3 cells after 72 hrs by MTT assay. The note with it: NIH3T3, 72 h. On the technique in general: Tetrazolium dyes change colour on reduction, which living cells bring about.
The subject of another test is A-431. Description: Antiproliferative activity against human A431 cells overexpressing EGFR after 72 hrs by MTT assay. The settings on record: A-431, 72 h.

Chain of Epidermal growth factor receptor (P00533 whole entry): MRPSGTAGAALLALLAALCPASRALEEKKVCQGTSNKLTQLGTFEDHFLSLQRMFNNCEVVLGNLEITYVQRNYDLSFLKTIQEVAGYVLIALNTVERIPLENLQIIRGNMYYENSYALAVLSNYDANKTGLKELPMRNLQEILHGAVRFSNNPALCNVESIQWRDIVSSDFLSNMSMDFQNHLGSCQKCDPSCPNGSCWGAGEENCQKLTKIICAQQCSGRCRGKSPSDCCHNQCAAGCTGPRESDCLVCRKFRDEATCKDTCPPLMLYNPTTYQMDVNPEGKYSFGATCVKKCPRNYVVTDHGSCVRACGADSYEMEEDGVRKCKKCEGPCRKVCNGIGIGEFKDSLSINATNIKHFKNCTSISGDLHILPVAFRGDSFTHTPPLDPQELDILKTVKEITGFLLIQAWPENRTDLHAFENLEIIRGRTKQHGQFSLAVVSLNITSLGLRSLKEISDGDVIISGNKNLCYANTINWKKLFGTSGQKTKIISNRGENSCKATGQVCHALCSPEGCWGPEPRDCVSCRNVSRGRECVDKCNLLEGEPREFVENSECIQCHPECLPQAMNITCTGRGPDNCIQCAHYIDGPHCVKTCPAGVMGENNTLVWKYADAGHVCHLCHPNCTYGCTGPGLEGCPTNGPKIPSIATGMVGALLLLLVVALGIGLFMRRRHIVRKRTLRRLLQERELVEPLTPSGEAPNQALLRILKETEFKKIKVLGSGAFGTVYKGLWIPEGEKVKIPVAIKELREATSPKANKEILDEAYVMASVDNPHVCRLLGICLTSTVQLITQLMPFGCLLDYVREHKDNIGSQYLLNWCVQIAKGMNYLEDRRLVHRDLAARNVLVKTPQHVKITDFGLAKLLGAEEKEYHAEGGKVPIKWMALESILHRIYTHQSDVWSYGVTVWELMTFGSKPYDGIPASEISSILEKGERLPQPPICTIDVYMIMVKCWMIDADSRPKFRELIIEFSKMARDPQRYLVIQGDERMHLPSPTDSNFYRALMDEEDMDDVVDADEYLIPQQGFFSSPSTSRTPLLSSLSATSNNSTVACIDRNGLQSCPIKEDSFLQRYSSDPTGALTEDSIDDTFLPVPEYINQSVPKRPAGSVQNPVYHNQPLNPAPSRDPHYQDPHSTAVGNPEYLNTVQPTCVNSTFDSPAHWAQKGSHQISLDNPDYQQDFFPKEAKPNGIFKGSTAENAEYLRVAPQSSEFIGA

Turning to `O=C1NN(c2ccc(F)c(Cl)c2)C(=O)/C1=C\c1cccc(OC(=O)c2cccs2)c1`, the pIC50 (usually −log10 of the IC50, conventionally taken in molar units) in test [1] was 5.46; in the test on NIH3T3, 4.55; in the test on A-431, 4.63.
In the case of `O=S(=O)(c1ccc(/N=C/c2cc(Br)ccc2O)cc1)N1CCCCC1`, the figures for the negative logarithm of the IC50 (pIC50) (in test [1]; with NIH3T3; in the test on A-431) were 5.01, under 4.30 and 4.40, respectively.
The compound `Cc1ccc(N2NC(=O)/C(=C\c3ccc(-c4cc([N+](=O)[O-])ccc4O)o3)C2=O)cc1C` gave a pIC50 in the test with NIH3T3 of 4.43.
In the case of `O=C(Cc1ccc(F)cc1)Nc1cc(SC[C@@H](O)CO)cc([N+](=O)[O-])c1`, the pIC50 in test [1] is 4.31; in the test with NIH3T3, under 4.30; with A-431, 4.57.
As to `O=C(Cn1c(-c2ccccc2)cc(=O)n2ncnc12)NNC(=S)Nc1ccccc1`, the figures for the pIC50 (in test [1]; in the test on NIH3T3; in the test on A-431) were 5.17, 4.70 and 4.71, respectively.
For `Cc1cccc(N2NC(=O)/C(=C/c3ccc(-c4ccccc4F)o3)C2=O)c1`, in that order: 4.64, under 4.30 and 4.52.
In the same order, the values of `CCOc1ccc(-c2cc(C(F)(F)F)c(C#N)c(SCC(=O)NCC(=O)O)n2)cc1` are 5.08, under 4.30 and under 4.30.
For `Cn1c(NCc2cccc(C(F)(F)F)c2)cc(=O)n(C)c1=O`, in that order: 4.08, under 4.30 and under 4.30.
Consider `O=C1NN(c2ccc(F)cc2)C(=O)/C1=C\c1cccc(OCc2ccccc2F)c1`, for which the pIC50 was 5.25 in test [1], 4.64 in the test with NIH3T3 and 4.72 in the test on A-431.
`Cc1nn(C)cc1C(=O)Nc1ccn(Cc2c(F)cccc2Cl)n1` had a pIC50 in the test on NIH3T3 of under 4.30.
`C=C(N/N=C/c1cn[nH]c1-c1ccccc1)[C@H](C)Cc1ccccc1` showed a pIC50 with NIH3T3 of under 4.30.
As for `Cc1ccc(N2NC(=O)/C(=C/c3ccc(OCc4ccccc4)cc3)C2=O)cc1Cl`, the pIC50 in test [1] was 5.07; in the test with NIH3T3 it was 4.38; with A-431, 4.85.
`Nc1nn2c(=O)cc(-c3ccccc3)[nH]c2c1/N=N/c1ccc2c(c1)OCO2`: the negative-log IC50 (pIC50) in test [1] is 5.28; with NIH3T3 it was 4.34; with A-431, 4.78.
Consider `CS(=O)(=O)CCNCc1ccc(-c2ccc3ncnc(Nc4ccc(OCc5cccc(F)c5)c(Cl)c4)c3c2)o1` [LAPATINIB], for which, in the test on NIH3T3, the pIC50 is 5.37.

These data come from ChEMBL document CHEMBL2029299, “Discovery of novel EGFR tyrosine kinase inhibitors by structure-based virtual screening” (Bioorg Med Chem Lett, 2012).
